Assay results published in patent US20250051263A1, “NOVEL IONIZABLE LIPIDS AND LIPID NANOPARTICLES AND METHODS OF USING THE SAME” (Sail Biomedicines, Inc., priority 2021, published 2025).
Values joined by “and” are separate entries in the source; they are usually repeats but may differ in a detail not shown here. Equal entries are not always repeated.

Columns and labels:
[1] = LNP size and polydispersity, Zetasizer Ultra; assay type: physicochemical
From the text: (§1) All other compositions (i.e., compositions of MC3 (a commercially available ionizable lipid having a chemical name of (6Z,9Z,28Z,31Z)-heptatriacont-6,9,28,31-tetraene-19-yl 4-(dimethylamino)butanoate, and compositions of novel ionizable lipids 7669, 7671, 7668, 767, 7650) are composed of ionizable lipid:structural lipid:sterol:PEG-lipid (SDA lipid #:DSPC:cholesterol:14:0 PEG2000 PE) at a molar ratio of […], respectively. Lipids are solubilized in ethanol. Compositions are then handled as above, except the formulations are maintained at ionizable lipid to mRNA N:P ratio of 6:1. The lipid mix and mRNA solution are mixed at a 1:3 ratio by volume, respectively, on a NanoAssemblr Ignite (Precision Nanosystems) at a total flow rate of 9 mL/min. Resulting compositions are then loaded into Slide-A-Lyzer G2 dialysis cassettes (10 k MWCO) and dialyzed in 200 times sample volume of 1×PBS for 4 hrs at room temp with gentle stirring. The PBS is refreshed, and the compositions are further dialyzed for at least 14 hrs at 4° C. with gentle stirring. The dialyzed compositions are then collected and concentrated by centrifugation at 2000×g using Amicon Ultra centrifugation filters (100 k MWCO). Concentrated particles are characterized for size, polydispersity, and particle concentration using Zetasizer Ultra (Malvern Panalytical) and for mRNA encapsulation efficiency using Quant-iT RiboGreen RNA Assay Kit (ThermoFisher Scientific).
(§2) The lipid mix and mRNA solution were mixed at a 1:3 ratio by volume, respectively, on the NanoAssemblr Ignite (Precision Nanosystems) at a total flow rate of 9 mL/min. Resulting formulations were then loaded into Slide-A-Lyzer G2 dialysis cassettes (10 k MWCO) and dialyzed in 200 times sample volume of 1×PBS for 2 hrs at room temperature. The PBS was refreshed, and the formulations were further dialyzed for at least 14 hrs at 4° C. with gentle stirring. The dialyzed formulations were then collected and concentrated by centrifugation at 3000×g using Amicon Ultra centrifugation filters (100 k MWCO). The concentrated formulations were characterized for size, polydispersity, and particle concentration using Zetasizer Ultra (Malvern Panalytical) and for mRNA encapsulation efficiency using Quant-iT RiboGreen RNA Assay Kit (ThermoFisher Scientific).
(§3) For each LNP composition, the lipid mix and mRNA solution were mixed at a 1:3 ratio by volume, respectively, on a NanoAssemblr Ignite (Precision Nanosystems) at a total flow rate of 9 mL/min. The resulting compositions were then loaded into Slide-A-Lyzer G2 dialysis cassettes (10 k MWCO) and dialyzed in 200 times sample volume of 1×PBS for 2 hours at room temperature with gentle stirring. The PBS was refreshed, and the compositions were further dialyzed for at least 14 hours at 4° C. with gentle stirring. The dialyzed compositions were then collected and concentrated by centrifugation at 3000×g using Amicon Ultra centrifugation filters (100 k MWCO). The concentrated particles were characterized for size, polydispersity, and particle concentration using Zetasizer Ultra (Malvern Panalytical) and for mRNA encapsulation efficiency using Quant-iT RiboGreen RNA Assay Kit (ThermoFisher Scientific).

[2] = mRNA encapsulation efficiency, Quant-iT RiboGreen RNA Assay; assay type: physicochemical
From the text: as §1, §2, §3

Balb/c mice = experiment: In-vivo bioluminescent imaging after IV injection of Fluc mRNA LNP; conditions: for Bioluminescence (IV) Liver / Bioluminescence (IV) Lung / Bioluminescence (IV) Spleen / Bioluminescence (IV) Whole Body / Spleen: Liver Ratio: Example 5 LNP (DOPE 35:16:46.5:2.5), 5 μg FLUC + 5 μg EPO; for Bioluminescence (IV) Liver / Bioluminescence (IV) Lung / Bioluminescence (IV) Spleen / Bioluminescence (IV) Whole Body / Bioluminescence Liver / Bioluminescence Lung / Bioluminescence Spleen: 4-6 hours post-dose; for Bioluminescence (IV) Liver / Bioluminescence (IV) Lung / Bioluminescence (IV) Spleen / Bioluminescence (IV) Whole Body / Spleen: Liver Ratio / Bioluminescence Liver / Bioluminescence Lung / Bioluminescence Spleen: IV; for Spleen: Liver Ratio: ratio of bioluminescence; for Bioluminescence Liver / Bioluminescence Lung / Bioluminescence Spleen: LNP lipid:DSPC:Plant Chol.:DMPE-PEG2k 50:10:38.5:1.5, 5 ug Fluc+5 ug EPO mRNA; for bioluminescence in the liver, spleen, and lung: used as part of an ionizable lipid scaffold (LNP), Table 1
Protocol: 8-9 week old female Balb/c mice are utilized for bioluminescence-based ionizable lipid screening efforts. Mice are obtained from Jackson Laboratories (JAX Stock: 000651) and allowed to acclimate for one week prior to manipulations. Animals are placed under a heat lamp for a few minutes before introducing them to a restraining chamber. The tail is wiped with alcohol pads (Fisher Scientific) and 100 μL of a lipid nanoparticle composition descrbed above containing 10 ug total mRNA (5 ug Fluc+5 ug EPO) is injected intravenously using a 29 G insulin syringe (Covidien). Any resulting bleeding is stemmed using a sterile gauze pad (Fisher Scientific) and animals are placed back into their home cage. 4-6 hours post-dose, animals are injected with 200 μL of 15 mg/mL D-Luciferin (GoldBio) and placed in an isoflurane induction chamber set to deliver 2.5% isoflurane delivered at an oxygen flow rate of 1-2 liters per min. After 5 minutes of isoflurane exposure, mice are placed in set nose cones inside the IVIS Lumina LT imager (PerkinElmer). LivingImage software is utilized for imaging. Whole body bio-luminescence is captured at auto-exposure after which animals are removed from the IVIS and placed into a CO2 chamber for euthanasia. Cardiac puncture is performed on each animal after placing it in dorsal recumbency, and blood collection is performed using a 25 G insulin syringe (BD). Blood is collected in Lithium-Heparin coated tubes (Fisher Scientific) and immediately placed on ice. Once all blood samples are collected, tubes are spun at 2000 G for 10 minutes using a tabletop centrifuge and plasma is aliquoted into individual Eppendorf tubes (Fisher Scientific) and stored at −80 C for subsequent EPO quantification. EPO levels in plasma are determined using EPO MSD kit (Meso Scale Diagnostics).
8-9 week old female Balb/c mice were utilized for bioluminescence-based ionizable lipid screening efforts. Mice were obtained from Jackson Laboratories (JAX Stock: 000651) and allowed to acclimate for one week prior to manipulations. Animals were placed under a heat lamp for a few minutes before introducing them to a restraining chamber. The tail was wiped with alcohol pads (Fisher Scientific) and, for each LNP composition descrbed above, 100 μL of a lipid nanoparticle composition descrbed above containing 10 μg total mRNA (5 μg Fluc+5 μg EPO, 5 μg Fluc+5 μg Cre, or 5 μg EGFP) was injected intravenously using a 29 G insulin syringe (Covidien).
4-6 hours post-dose, animals were injected with 200 μL of 15 mg/mL D-Luciferin (GoldBio), and placed in set nose cones inside the IVIS Lumina LT imager (PerkinElmer). LivingImage software was utilized for imaging. Whole body bio-luminescence was captured at auto-exposure after which animals are removed from the IVIS and placed into a CO2 chamber for euthanasia. Cardiac puncture was performed on each animal after placing it in dorsal recumbency, and blood collection was performed using a 25 G insulin syringe (BD). Once all blood samples were collected, tubes are spun at 2000 G for 10 minutes using a tabletop centrifuge and plasma was aliquoted into individual Eppendorf tubes (Fisher Scientific) and stored at −80° C. for subsequent EPO quantification. EPO levels in plasma were determined using EPO MSD kit (Meso Scale Diagnostics).

[3] = Example 5 LNP lipid:DOPE:Plant Cholesterol:DMPE-PEG2k 35:16:46.5:2.5, FLUC/EPO 1:1 mRNA, N:P 6:1
[4] = LNP ionizable lipid:DOPE:Plant Chol.:DMPE-PEG2k 35:16:46.5:2.5 (Table 1)
[5] = LNP ionizable lipid:DSPC:Plant Chol.:DMPE-PEG2k 50:10:38.5:1.5

| Compound | PDI [1, 3] | Size (nm) [1, 3] | % EE [2, 3] | Bioluminescence (IV) Liver (Balb/c mice) | Bioluminescence (IV) Lung (Balb/c mice) | Bioluminescence (IV) Spleen (Balb/c mice) | Bioluminescence (IV) Whole Body (Balb/c mice) | Spleen: Liver Ratio (Balb/c mice) | PDI [1, 4] | Size (nm) [1, 4] | PDI [1, 5] | Size (nm) [1, 5] | % EE [2, 4] | Bioluminescence Liver (Balb/c mice) | Bioluminescence Lung (Balb/c mice) | Bioluminescence Spleen (Balb/c mice) | bioluminescence in the liver, spleen, and lung (Balb/c mice) |
| --- | --- | --- | --- | --- | --- | --- | --- | --- | --- | --- | --- | --- | --- | --- | --- | --- | --- |
| CCCCCCCCCOC(=O)CCCCCCCN(CCCCCCCC(=O)OC(CCCCCCCC)CCCCCCCC)CCNC(=O)CCC(=O)NCCN(CCCCCCCC(=O)OCCCCCCCCC)CCCCCCCC(=O)OC(CCCCCCCC)CCCCCCCC [Compound 2213, nonyl 8-[2-[[4-[2-[(8-nonoxy-8-oxo-octyl)-[8-(1-octylnonoxy)-8-oxo-octyl]amino]ethylamino]-4-oxo-butanoyl]amino]ethyl-[8-(1-octylnonoxy)-8-oxo-octyl]amino]octanoate] | 0.10 | 63.9 nm | 92.5% | 2.2E+06 | 3.7E+03 | 3.5E+05 | 1.0E+07 | 0.215 |  |  |  |  |  |  |  |  |  |
| CCCCCCCCCCCOC(=O)CCCCCN(CCCCCCCC(=O)OC(CCCCCCCC)CCCCCCCC)CCOC(=O)OCCN(CCCCCCCC(=O)OC(CCCCCCCC)CCCCCCCC)CCCCCC(=O)OCCCCCCCCCCC [Compound 2218, 1-octylnonyl 8-[2-[2-[[8-(1-octylnonoxy)-8-oxo-octyl]-(6-oxo-6-undecoxy-hexyl)amino]ethoxycarbonyloxy]ethyl-(6-oxo-6-undecoxy-hexyl)amino]octanoate] | 0.09 | 70.0 nm | 91.7% | 1.9E+03 | 7.9E+02 | 1.8E+03 | 4.1E+03 | 1.019 | 0.17 and 0.09 | 71.28 nm and 70.00 nm | 0.05 | 96.55 nm | 94.4% and 91.7% | 1.16E+03 | 7.20E+02 | 8.14E+03 | improved bioluminescence |
| CCCCCCCCCCCOC(=O)CCCCCN(CCCCCCCC(=O)OC(CCCCCCCC)CCCCCCCC)CCNC(=O)CC(=O)NCCN(CCCCCCCC(=O)OC(CCCCCCCC)CCCCCCCC)CCCCCC(=O)OCCCCCCCCCCC [Compound 2220, 1-octylnonyl 8-[2-[[3-[2-[[8-(1-octylnonoxy)-8-oxo-octyl]-(6-oxo-6-undecoxy-hexyl)amino]ethylamino]-3-oxo-propanoyl]amino]ethyl-(6-oxo-6-undecoxy-hexyl)amino]octanoate] | 0.17 | 71.3 nm | 94.4% | 1.1E+07 | 1.8E+03 | 7.5E+04 | 4.3E+07 | 0.004 |  |  | 0.03 | 89.17 nm |  | 1.03E+07 | 7.79E+03 | 2.09E+06 | improved bioluminescence |
| CCCCCCCCCCCOC(=O)CCCCCN(CCCCCCCC(=O)OC(CCCCCCCC)CCCCCCCC)CCNC(=O)NCCN(CCCCCCCC(=O)OC(CCCCCCCC)CCCCCCCC)CCCCCC(=O)OCCCCCCCCCCC [Compound 2246, 1-octylnonyl8-[2-[2-[[8-(1-octylnonoxy)-8-oxo-octyl]-(6-oxo-6-undecoxy-hexyl)amino]ethylcarbamoylamino]ethyl-(6-oxo-6-undecoxy-hexyl)amino]octanoate] | 0.05 | 62.7 nm | 94.9% | 1.8E+07 | 3.7E+03 | 1.3E+05 | 1.3E+08 | 0.007 |  |  |  |  |  |  |  |  |  |
| CCCCCCCCCCCOC(=O)CCCCCN(CCCCCCCC(=O)OC(CCCCCCCC)CCCCCCCC)CCN1CCN(CCN(CCCCCCCC(=O)OC(CCCCCCCC)CCCCCCCC)CCCCCC(=O)OCCCCCCCCCCC)CC1 [Compound 2248, 1-octylnonyl 8-[2-[4-[2-[[8-(1-octylnonoxy)-8-oxo-octyl]-(6-oxo-6-undecoxy-hexyl)amino]ethyl]piperazin-1-yl]ethyl-(6-oxo-6-undecoxy-hexyl)amino]octanoate] | 0.10 | 83.5 nm | 95.0% | 5.6E+07 | 2.7E+04 | 4.5E+05 | 3.5E+08 | 0.008 |  |  |  |  |  |  |  |  |  |
